Measurements from ChEMBL document CHEMBL1201862, “PubChem BioAssay data set” (2004).
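Interpolation was linear, between the two tested concentrations surrounding the appropriate level; five concentrations were tested over 48 hours in 96-well plates. GI50: concentration for 50% inhibition of growth.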 Active and inactive are the calls of the source. Cut-off read from the data, not from the text of the source: active = GI50 up to about 1.1 µM and inactive = higher.

Experiments:
Assay in all cases: NCI-60 cell line screen, 48 h
786-0 = tested on: 786-0
A498 = tested on: A498
A549 = tested on: A549
ACHN = tested on: ACHN
BT-549 = tested on: BT-549
CAKI-1 = tested on: CAKI-1
CCRF-CEM = tested on: CCRF-CEM
COLO 205 = tested on: COLO 205
DU-145 = tested on: DU-145
EKVX = tested on: EKVX
HCC 2998 = tested on: HCC 2998
HCT-116 = tested on: HCT-116
HCT-15 = tested on: HCT-15
HL-60 = tested on: HL-60
HOP-62 = tested on: HOP-62
HOP-92 = tested on: HOP-92
HT-29 = tested on: HT-29
Hs-578T = tested on: Hs-578T
IGROV-1 = tested on: IGROV-1
K562 = tested on: K562
KM12 = tested on: KM12
LOX IMVI = tested on: LOX IMVI
MCF7 = tested on: MCF7
MDA-MB-231 = tested on: MDA-MB-231
MDA-MB-435 = tested on: MDA-MB-435
MDA-N = tested on: MDA-N
MOLT-4 = tested on: MOLT-4
Malme-3M = tested on: Malme-3M
NCI-H226 = tested on: NCI-H226
NCI-H23 = tested on: NCI-H23
NCI-H460 = tested on: NCI-H460
NCI-H522 = tested on: NCI-H522
NCI/ADR-RES = tested on: NCI/ADR-RES
OVCAR-3 = tested on: OVCAR-3
OVCAR-4 = tested on: OVCAR-4
OVCAR-5 = tested on: OVCAR-5
OVCAR-8 = tested on: OVCAR-8
PC-3 = tested on: PC-3
RPMI-8226 = tested on: RPMI-8226
RXF 393 = tested on: RXF 393
SF-268 = tested on: SF-268
SF-295 = tested on: SF-295
SF-539 = tested on: SF-539
SK-MEL-28 = tested on: SK-MEL-28
SK-MEL-2 = tested on: SK-MEL-2
SK-MEL-5 = tested on: SK-MEL-5
SN12C = tested on: SN12C
SNB-75 = tested on: SNB-75
SW-620 = tested on: SW-620
T47D = tested on: T47D
TK-10 = tested on: TK-10
U-251 = tested on: U-251
UACC-257 = tested on: UACC-257
UACC-62 = tested on: UACC-62
UO-31 = tested on: UO-31

In the case of `O=c1[nH]nc(Cc2ccccc2)n1/N=C/c1ccc([N+](=O)[O-])cc1`, the GI50 (786-0) is reported as > 100 µM (inactive), the GI50 (A498) is reported as > 100 µM (inactive) and the GI50 (A549) is reported as > 100 µM (inactive). The GI50 (ACHN) was > 100 µM (inactive), the GI50 (BT-549) was > 100 µM (inactive) and the GI50 (CAKI-1) was > 100 µM (inactive). The GI50 (CCRF-CEM) was > 100 µM (inactive), the GI50 (COLO 205) was > 100 µM (inactive) and the GI50 (DU-145) was > 100 µM (inactive). For the same compound, the GI50 (EKVX) was > 100 µM (inactive), the GI50 (HCC 2998) was > 100 µM (inactive) and the GI50 (HCT-116) was > 100 µM (inactive). The GI50 (HCT-15) was > 100 µM, the GI50 (HL-60) was > 100 µM (inactive) and the GI50 (HOP-62) was > 100 µM (inactive). For the same compound, the GI50 (HOP-92) was > 100 µM (inactive), the GI50 (HT-29) was > 100 µM (inactive) and the GI50 (Hs-578T) was > 100 µM (inactive). For the same compound, the GI50 (IGROV-1) was > 100 µM (inactive), the GI50 (K562) was > 100 µM (inactive) and the GI50 (KM12) was > 100 µM (inactive). The GI50 (LOX IMVI) was > 100 µM (inactive), the GI50 (MCF7) was > 100 µM (inactive) and the GI50 (MDA-MB-231) was > 100 µM (inactive). The GI50 (MDA-MB-435) was > 100 µM (inactive), the GI50 (MDA-N) was > 100 µM (inactive) and the GI50 (MOLT-4) was > 100 µM (inactive). The GI50 (Malme-3M) was > 100 µM (inactive), the GI50 (NCI-H226) was > 100 µM (inactive) and the GI50 (NCI-H23) was > 100 µM (inactive). For the same compound, the GI50 (NCI-H460) was > 100 µM (inactive), the GI50 (NCI-H522) was > 100 µM (inactive) and the GI50 (NCI/ADR-RES) was > 100 µM (inactive). For the same compound, the GI50 (OVCAR-3) was > 100 µM (inactive), the GI50 (OVCAR-4) was > 100 µM (inactive) and the GI50 (OVCAR-5) was > 100 µM (inactive). The GI50 (OVCAR-8) was > 100 µM (inactive), the GI50 (PC-3) was > 100 µM (inactive) and the GI50 (RPMI-8226) was > 10 µM (inactive). For the same compound, the GI50 (RXF 393) was > 100 µM (inactive), the GI50 (SF-268) was > 100 µM (inactive) and the GI50 (SF-295) was > 100 µM (inactive). The GI50 (SF-539) was > 100 µM (inactive), the GI50 (SK-MEL-28) was > 100 µM (inactive) and the GI50 (SK-MEL-2) was 49 µM (inactive). For the same compound, the GI50 (SK-MEL-5) was > 100 µM (inactive), the GI50 (SN12C) was > 100 µM (inactive) and the GI50 (SNB-75) was 42 µM (inactive). For the same compound, the GI50 (SW-620) was > 100 µM (inactive), the GI50 (T47D) was > 100 µM (inactive) and the GI50 (TK-10) was > 100 µM (inactive). For the same compound, the GI50 (U-251) was > 100 µM (inactive), the GI50 (UACC-257) was > 100 µM (inactive) and the GI50 (UACC-62) was > 100 µM (inactive). For the same compound, the GI50 (UO-31) was > 100 µM (inactive).
